The source of these data is US11944635B1, “Compositions and methods for treating epilepsy” (priority 2023, dated 2024).

“Also recorded” adds a separate entry of the source.

The data set can be described thus: Hepatic markers (ALT, AST, ALP, GGT, total bilirubin) in the 5-week human study. As to conditions: 5 weeks, versus placebo. The data set is classed as in vivo. As to the method:
Each patient visited the laboratory 6 times in total. During each visit, a sample of venous blood was taken from forearm following an overnight fast and sample of urine was obtained. All blood and urine samples were analyzed in the same certified institutional biochemical laboratory, using the standard operating procedures.
Hepatic (ALT, AST, ALP, GGT, and total bilirubin) markers were also measured.
Moreover, these changes we <1 standard deviation and therefore viewed as not clinically meaningful. As noted earlier, >3 SD over normative values were classified as an AE.

As for `C=C(C)[C@@H]1CCC(C)=C[C@H]1c1c(O)cc(CCCCC)cc1O` [CBD, 2-[(1R,6R)-6-Isopropenyl-3-methylcyclohex-2-en-1-yl]-5-pentylbenzene-1,3-diol], the “plasma alanine transaminase (ALT)” value is “remained effectively unchanged”, the “plasma alkaline phosphatase (ALP)” value was “remained effectively unchanged” and the plasma total bilirubin entry is “remained effectively unchanged”. Also, the “plasma gamma-glutamyl transferase (GGT)” value (main effect of dose P=0.038) was “slightly higher; also recorded: remained effectively unchanged”. For the same compound, the “plasma aspartate transaminase (AST)” value (main effect of dose P=0.047) is reported as “higher in the placebo condition; also recorded: remained effectively unchanged”.
